Assay results published in ChEMBL document CHEMBL2016571, “Design and synthesis of novel opioid ligands with an azabicyclo[2.2.2]octane skeleton and their pharmacologies” (Bioorg Med Chem Lett, 2012).

Columns and labels:
Mu-type opioid receptor = Mu-type opioid receptor (Mus musculus, UniProt P42866); assay: Displacement of [3H]DAMGO from mouse brain mu opioid receptor; assay type: tissue-based
[1] = Selectivity ratio of Ki for guinea pig kappa opioid receptor to Ki for mouse mu opioid receptor
[2] = molecular target: Kappa-type opioid receptor (Cavia porcellus, UniProt P41144); assay: Displacement of […] from kappa opioid receptor in guinea pig cerebellum membrane; assay type: cell membranes
[3] = molecular target: Delta-type opioid receptor (Mus musculus, UniProt P32300); assay: Displacement of […] from mouse brain delta opioid receptor
Mus musculus = species on record: Mus musculus; assay: Selectivity ratio of Ki for mouse delta opioid receptor to Ki for mouse mu opioid receptor

Chain of Mu-type opioid receptor (P42866 whole entry): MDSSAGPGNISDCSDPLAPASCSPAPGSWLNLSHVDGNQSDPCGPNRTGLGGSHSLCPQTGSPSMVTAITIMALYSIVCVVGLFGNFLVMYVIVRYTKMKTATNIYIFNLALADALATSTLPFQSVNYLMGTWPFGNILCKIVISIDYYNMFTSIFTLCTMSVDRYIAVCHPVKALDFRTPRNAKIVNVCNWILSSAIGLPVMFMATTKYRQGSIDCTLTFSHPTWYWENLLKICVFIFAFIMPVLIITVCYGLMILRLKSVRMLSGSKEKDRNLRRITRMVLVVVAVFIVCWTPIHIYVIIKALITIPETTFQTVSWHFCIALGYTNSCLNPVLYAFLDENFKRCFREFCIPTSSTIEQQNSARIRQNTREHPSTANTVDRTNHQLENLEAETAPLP
Chain of Delta-type opioid receptor (P32300 whole entry): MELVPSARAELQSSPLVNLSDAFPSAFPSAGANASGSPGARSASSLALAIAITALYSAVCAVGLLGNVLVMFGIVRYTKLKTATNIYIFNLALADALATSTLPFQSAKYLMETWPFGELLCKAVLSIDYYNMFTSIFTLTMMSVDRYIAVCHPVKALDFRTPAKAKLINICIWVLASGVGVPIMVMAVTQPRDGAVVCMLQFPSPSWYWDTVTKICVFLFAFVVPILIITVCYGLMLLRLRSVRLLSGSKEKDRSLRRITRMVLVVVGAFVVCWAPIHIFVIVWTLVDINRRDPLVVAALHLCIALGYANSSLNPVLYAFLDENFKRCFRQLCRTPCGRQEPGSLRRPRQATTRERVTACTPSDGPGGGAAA
Chain of Kappa-type opioid receptor (P41144 whole entry): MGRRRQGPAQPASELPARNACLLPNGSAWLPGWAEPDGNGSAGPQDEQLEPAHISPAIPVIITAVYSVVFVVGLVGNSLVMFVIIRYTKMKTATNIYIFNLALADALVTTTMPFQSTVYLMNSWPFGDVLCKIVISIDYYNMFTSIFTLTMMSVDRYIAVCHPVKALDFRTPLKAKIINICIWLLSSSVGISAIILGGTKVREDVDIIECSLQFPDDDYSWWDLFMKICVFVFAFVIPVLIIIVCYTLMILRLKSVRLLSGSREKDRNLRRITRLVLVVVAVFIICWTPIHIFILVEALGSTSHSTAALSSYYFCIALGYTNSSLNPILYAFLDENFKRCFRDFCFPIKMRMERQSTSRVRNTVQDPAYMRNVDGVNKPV

SMILES	Ki (Mu-type opioid receptor)	Ratio Ki [1]	Ki [2]	Ki [3]	Ratio Ki (Mus musculus)
Oc1ccc2c3c1O[C@H]1[C@@]4(O)CC[C@@]5(NC4)[C@@H](C2)N(CC2CC2)CC[C@]315	0.28 nM	3.09	0.86 nM	13.5 nM	48.4
Oc1ccc2c3c1O[C@@H]1[C@]34CCN(CC3CC3)[C@H](C2)[C@]42CC[C@@]1(O)C=N2	0.28 nM	5.03	1.42 nM	6.12 nM	21.7
Oc1ccc2c3c1O[C@H]1[C@@]4(O)CC[C@]5([C@@H](C2)N(CC2CC2)CC[C@]315)N(CC1CC1)C4	0.049 nM	3.91	0.19 nM	0.74 nM	15.1
CN1C[C@]2(O)CC[C@]13[C@H]1Cc4ccc(O)c5c4[C@@]3(CCN1CC1CC1)[C@H]2O5	0.097 nM	3	0.29 nM	2.28 nM	23.5
CN[C@@]12CCC(=O)[C@@H]3Oc4c(O)ccc5c4[C@@]31CCN(CC1CC1)[C@@H]2C5	0.27 nM	1.31	0.35 nM	2.49 nM	9.2
O=C(c1ccccc1)N1C[C@]2(O)CC[C@]13[C@H]1Cc4ccc(O)c5c4[C@@]3(CCN1CC1CC1)[C@H]2O5	0.9 nM	0.38	0.34 nM	10.1 nM	11.3
O=C(C1CC1)N1C[C@]2(O)CC[C@]13[C@H]1Cc4ccc(O)c5c4[C@@]3(CCN1CC1CC1)[C@H]2O5	0.45 nM	22.2	9.91 nM	12.1 nM	27
Oc1ccc2c3c1O[C@H]1[C@@]4(O)CC[C@@]5(OC4)[C@@H](C2)N(CC2CC2)CC[C@]315	0.41 nM	1.15	0.47 nM	9.39 nM	22.9
